Assay results reported in patent publication US20120214684A1, “COMPOSITIONS AND METHODS FOR DETECTING AND TREATING PROSTATE CARCINOMA” (UNIVERSITY OF FLORIDA RESEARCH FOUNDATION, priority 2009, published 2012).

Assays:
Sox2, Oct3/4, Nanog = test: Western blot of stem cell markers after Docetaxel treatment; format: cell-based, human; settings: 1 nM, 2 nM, 5 nM, 10 nM docetaxel
Protocol: (§1) FIG. 12B is a graph depicting the cell viability of prostate cancer stem cells (CSC) and non-stem prostate cancer cells (Non-CSC) observed for up to 72 hours after treatment with Docetaxel. Cell viability was determined by quantifying the surviving prostate cancer stem cells (CSC) and non-stem prostate cancer cells (Non-CSC) in the samples exposed to 5 nM Docetaxel at Day 0, 1, 2 and 3.
(§2) Prostate cancer stem cells from metastatic prostate cancer cell lines were examined for their sensitivity to conventional cancer treatments (e.g., radiation and chemotherapy). […] Metastatic prostate stem cell lines were also treated with Docetaxel, a frontline treatment for drug-resistant cancer cells.
For the experiments described above, Western-blot analysis was performed by standard methods on isolated cancer stem cells and non-cancer stem cells. Whole cell lysates were prepared in lysis buffer with a commercially available protease inhibitor cocktail (Pierce) at 4° C., followed by centrifugation at 13,000×g for 10 min. Extracts were separated by SDS/PAGE and transferred to nitrocellulose membranes. The membranes were blocked with 5% nonfat dry milk in 20 mM Tris-HCl (pH 7.5), 500 mM sodium chloride, and 0.05% Tween 20 for 2 h and then incubated with commercially available primary antibodies in the same buffer with 1% BSA (fraction V). […]

[1] = test system: prostate cancer stem cells (CSC) and non-stem prostate cancer cells (Non-CSC); test: Cell viability of CSC and Non-CSC after Docetaxel; format: cell-based, human; settings: 5 nM Docetaxel, Day 0, 1, 2 and 3
Protocol: as §1, §2

With `CC(=O)O[C@@]12CO[C@@H]1C[C@H](O)[C@@]1(C)C(=O)[C@H](O)C3=C(C)[C@@H](OC(=O)[C@H](O)[C@@H](NC(=O)OC(C)(C)C)c4ccccc4)C[C@@](O)([C@@H](OC(=O)c4ccccc4)[C@H]21)C3(C)C` [Docetaxel] the “detection of Sox2, Oct 3/4 and Nanog expression” value (Sox2, Oct3/4, Nanog) was “increased detection of Sox2, Oct 3/4 and Nanog expression with increasing dose” and the “cell viability of prostate cancer stem cells vs non-stem prostate cancer cells” value [1] was “more cell viability compared to non-stem prostate cancer cells”.
